The experiment has as its target T1, Prostaglandin G/H synthase 1 (Ovis aries, UniProt P05979).
T1 sequence (P05979 whole entry): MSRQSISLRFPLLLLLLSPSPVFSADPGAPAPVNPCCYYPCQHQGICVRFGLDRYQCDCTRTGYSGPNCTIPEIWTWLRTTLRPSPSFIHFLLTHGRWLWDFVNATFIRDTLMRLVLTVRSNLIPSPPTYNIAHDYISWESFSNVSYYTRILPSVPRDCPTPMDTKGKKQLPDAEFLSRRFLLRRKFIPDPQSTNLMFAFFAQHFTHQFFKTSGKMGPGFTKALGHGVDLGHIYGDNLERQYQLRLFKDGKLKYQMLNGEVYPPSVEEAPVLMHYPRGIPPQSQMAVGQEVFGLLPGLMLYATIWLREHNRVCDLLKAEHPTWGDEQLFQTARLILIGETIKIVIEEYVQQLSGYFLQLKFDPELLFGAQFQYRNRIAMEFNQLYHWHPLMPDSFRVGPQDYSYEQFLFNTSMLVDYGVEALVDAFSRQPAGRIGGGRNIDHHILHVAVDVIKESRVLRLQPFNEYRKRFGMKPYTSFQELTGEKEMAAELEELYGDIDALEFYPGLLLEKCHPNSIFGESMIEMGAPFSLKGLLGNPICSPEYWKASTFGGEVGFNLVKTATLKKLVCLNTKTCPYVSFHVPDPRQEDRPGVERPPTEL
Put plainly: Inhibition of Ovis aries (sheep) COX1 using arachidonic acid as substrate using cyclic naphthalene hydrazide by chemiluminescence assay.
In general, IC50 refers to the point on the concentration scale where inhibition reaches its midpoint. In turn, `CS(=O)(=O)c1ccc(-c2nc(-c3ccc(Cl)cc3)[nH]c2-c2ccccc2)cc1` showed an IC50 of 10.1 µM.

Turning to `CS(=O)(=O)c1ccc(-c2nc(-c3ccc(F)cc3)[nH]c2-c2ccccc2)cc1`, the IC50 was found to be 11.1 µM.

`COc1ccc(-c2nc(-c3ccc(S(C)(=O)=O)cc3)c(-c3ccccc3)[nH]2)cc1` had an IC50 of 10.6 µM. For the compound `CC(=O)Nc1ccc(-c2nc(-c3ccc(S(C)(=O)=O)cc3)c(-c3ccccc3)[nH]2)cc1`, it took 10.4 µM to reach half-maximal inhibition (IC50).

Consider `CS(=O)(=O)c1ccc(-c2nc(-c3ccc(O)cc3)[nH]c2-c2ccccc2)cc1`, for which the IC50 was found to be 11.3 µM.

As for `Cc1ccc(-c2nc(-c3ccc(S(C)(=O)=O)cc3)c(-c3ccccc3)[nH]2)cc1`, the IC50 stood at 10.4 µM. Under `CS(=O)(=O)c1ccc(-c2nc(-c3ccccc3)[nH]c2-c2ccccc2)cc1` stands 9.9 µM.

Source of the values: ChEMBL document CHEMBL3046048, “Design and synthesis of new 2,4,5-triarylimidazole derivatives as selective cyclooxygenase (COX-2) inhibitors” (Med Chem Res, 2012).
